Data published in publication PMC12670426 (Journal of Medicinal Chemistry, 2025).

Test: Plasma stability assay, human plasma
Type: in vitro ADME
Details: pooled plasma, 37 °C
Method: Test compounds (10 μM) were incubated with mouse, rat, or human pooled plasma from 50 donors (Biowest) at 37 °C for 20, 60, and 120 min. Reactions were terminated by adding four volumes of ice-cold methanol, followed by vigorous mixing. Samples were kept at −20 °C for 30 min and then stored at 4 °C overnight. The next day, samples were centrifuged, and supernatants were diluted with four volumes of 30% methanol in water. Zero time points were prepared by adding ice-cold methanol to the compound prior to the addition of plasma. Samples were then analyzed on an Echo MS system (SCIEX) using multiple reaction monitoring (MRM). The only exception was compound 3af, which was analyzed by LC–MS/MS (SCIEX 6500 triple quadrupole) due to its weak ionization in Echo-MS.

- remaining at 2 h, 10 μM: 110 ± 6%
Compound: CC(=O)N(c1cc(C(=O)O)cc2[nH]ccc12)[C@@H]1O[C@H](CO)[C@@H](S[C@@H]2O[C@H](CO)[C@H](O)[C@H](n3cc(-c4cccc(F)c4)nn3)[C@H]2O)[C@H](O)[C@H]1O [Compound 11, N-[4-S-(3-Deoxy-3-(4-(3-fluorophenyl)-1H-1,2,3-triazol-1-yl)-β-D-galactopyranosyl)-4-thio-β-D-glucopyranosyl]-N-(6-carboxy-1H-indol-4-yl)acetamide]
